# Measurements published in patent publication US20230149326A1, “PHARMACEUTICAL COMPOSITION FOR PREVENTING OR TREATING MUSCULAR WEAKNESS-RELATED DISEASES COMPRISING ALVERINE, 4-HYDROXY ALVERINE, DERIVATIVE THEREOF, OR PHARMACEUTICALLY ACCEPTABLE SALT THEREOF” (AVENTI INC., priority 2020, published 2023).
# Key:
# C2C12 cells [1] = test: Myotube atrophy induced by C26 cancer cell conditioned medium (cachexia model); type: cell-based, mouse; settings: 1 μM; differentiation media with 33% CM, 3 days
# Description: In order to confirm a cachexia treatment effect of alverine citrate and 4-hydroxy alverine, an experiment mimicking a tumor-growth environment by treatment of a cancer cell conditioned medium (CM) was conducted as an ex vivo approach. First, cancer cell CM was prepared using a C26 cancer cell line. Here, as cancel cell growth media (GM), RPMI1640 media supplemented with 10% fetal bovine serum was used. The C26 cancer cell line was cultured using a 100 mm cell culture plate and the cancer cell GM. Here, the media were removed when cell confluency reached 90%. Then, after washing with phosphate buffer (1× buffer), the prepared differentiation media were treated following the same process as in Example 1. After 24 hours, a C26 cancer cell line CM was obtained and filtered using bottle top filters (Thermo, PES, 1 L) before use.
# C2C12 cells were dispensed in a 6-well plate treated with the GM of Example 1.1 at a concentration of 5×10^5 cells per plate and after 24 hours, were replaced with DMEM media supplemented with 5% HS and induced for differentiation. […] Here, by treating the experimental groups with 1 μM alverine citrate (AC) and 4-hydroxy alverine (4HA), the effect of suppressing myotube atrophy was evaluated. […] Following the same method as in Example 1.2, by florescent staining using antibodies against MyHC, the expression amount of MyHC was measured.
# C2C12 cells [2] = test: Promotion of differentiation of myoblasts (MyHC fluorescent staining); type: cell-based, mouse
# Description: C2C12 (American Type Culture Collection, CRL-1772™) cells are a myoblast cell line obtained from C3H mouse and is used in myoblast differentiation research. The C2C12 cells were cultured using growth media, and then cultured using differentiation media for differentiation induction. Here, DMEM supplemented with 10% fetal bovine serum was used as growth media (GM), and DMEM supplemented with 5% horse serum (HS) was used as differentiation media (DM). In order to confirm the effect of alverine citrate on promoting the differentiation of myoblasts, C2C12 cells were dispensed in the GM of Example 1.1 and cultured for 24 hours, and then the C2C12 cells were treated with DMSO, insulin, or alverine citrate, and induced for differentiation over 3 days. […] Here, the DMSO, insulin and alverine citrate used in the experiment were all purchased from Sigma-Aldrich. The group treated with insulin was used as the positive control group. In particular, C2C12 cells were dispensed in a 6-well plate treated with the GM of Example 1.1 at a concentration of 5×10^5 cells per plate and after 24 hours, were replaced with DMEM media supplemented with 5% HS and induced for differentiation. Thereafter, the cells were treated with DMSO, insulin (1.72 μM) or alverine citrate (0.01 μM, 0.1 μM, 1 μM or 10 μM). After 3 days, after removing the media, the cells were washed with phosphate buffer solution (1× PBS) and treated with paraformaldehyde (4%) and fixed at room temperature for 15 minutes. Then, after washing three times with phosphate buffer solution (1× PBS), PBS containing 0.3% triton X-100 was treated with permeabilization buffer and allowed to react at room temperature for 10 minutes. After washing three times with phosphate buffer solution (1× PBS), PBST (blocking buffer, PBS containing 0.5% Tween 20) containing 2% bovine serum albumin was administered and allowed to react for 30 minutes to suppress nonspecific binding of antibodies. After washing with phosphate buffer (1× PBS) three times, 100 μL of primary antibodies (SC-20641, Santa Cruz Biotechnology) to MYH3 diluted to 1:500 were added and allowed to react at room temperature for 1 hour. Thereafter, after washing with phosphate buffer (1× PBS) three times, 100 μL of secondary antibodies (Goat anti-Rabbit IgG-HRP) diluted to 1:5,000 were added and allowed to react at room temperature for 1 hour. After 1 hour, for nuclear staining, after washing with phosphate buffer (1× PBS) three times, the blocking buffer was treated with diluted DAPI dye and allowed to react at room temperature for 10 minutes. Thereafter, after washing with phosphate buffer (1× PBS) three times, the washed cover glass was measured for absorbance at a wavelength of 450 nm and a fluorescent image was taken using a fluorescence microscope. The anti-MyHC antibody stained area was analyzed using imageJ (Java-based image processing program). To confirm the effect of 4-hydroxy alverine on promoting myoblast differentiation, following the same method as Example 1, DMSO, insulin (1.72 μM), alverine citrate (0.01 μM, 0.1 μM, 1 μM or 10 μM), 4-hydroxy alverine (0.01 μM, 0.1 μM, 1 μM or 10 μM) were each administered, and differentiation to myotubes and changes in myotube thickness and diameter were observed.
# sarcopenia-induced mice = test: Running ability test, sarcopenia-induced mouse; type: in vivo; settings: hindlimb-immobilized mice; oral 150 mg/kg/day (AC-H); compared with normal mouse
# Description: Running ability was measured using a treadmill designed specific for this experiment. First, aversive stimuli were provided by letting electric stimuli flow at the starting point. Before the measurement, the mice were acclimatized at 8 m/min for 10 minutes. The running time was recorded by allowing mice in each group to run in separate lanes until exhaustion. Exhaustion was defined such that when the mouse stays outside the lanes for 10 seconds or more without running, the mouse was determined to be exhausted and the time was recorded. It was not possible to repeat this experiment on the same mouse. The mouse was placed on the treadmill and the test was started at 8 rpm, and the speed was accelerated by 2 rpm every 10 minutes to a maximum speed of 20 rpm. The slope of the lane started from a zero-degree incline and then was elevated to a five-degree incline after 30 min from the start. In order to confirm a muscle strength enhancement effect of alverine citrate, sarcopenia-induced mice were administered with alverine citrate and tested for running ability. After the treadmill running test, muscle weight was measured. In particular, the hindlimb of 10 week-old C57BL/6 male mice was immobilized using a surgical stapler (Autosuture Royal 35W stapler). […] After that, running ability was measured. […] Running ability was measured by the same method as in Example 2.2.
# C2C12 cells [3] = test: Effect of alverine derivatives on promoting myoblast differentiation; type: cell-based, mouse; settings: 1 μM, 4 days; compared with DMSO alone
# Description: C2C12 (American Type Culture Collection, CRL-1772™) cells are a myoblast cell line obtained from C3H mouse and is used in myoblast differentiation research. The C2C12 cells were cultured using growth media, and then cultured using differentiation media for differentiation induction. Here, DMEM supplemented with 10% fetal bovine serum was used as growth media (GM), and DMEM supplemented with 5% horse serum (HS) was used as differentiation media (DM).
# In order to confirm the effect of an alverine derivative on promoting the differentiation of myoblasts, C2C12 cells were dispensed in the GM of Example 1.1 and cultured for 24 hours. Then, the C2C12 cells were treated with DMSO (Sigma-Aldrich), insulin, alverine (Sigma-Aldrich), or 27 types of alverine derivatives, each at a concentration of 1 μM and were induced for differentiation over 4 days. […]
# After washing three times with phosphate buffer (1× PBS), PBST (blocking buffer, PBS containing 0.5% Tween 20) containing 2% bovine serum albumin was administered and allowed to react for 30 minutes to suppress nonspecific binding of antibodies. […] Thereafter, after washing with phosphate buffer (1× PBS) three times, the washed cover glass was measured for absorbance at a wavelength of 450 nm and a fluorescent image was taken using a fluorescence microscope.
compound,measurement,setting,value
"CCN(CCCc1ccccc1)CCCc1ccc(O)cc1 [4-hydroxy alverine, 4-[3-[ethyl(3-phenylpropyl)amino]propyl]phenol]",myotube atrophy,C2C12 cells [1],myotube atrophy was suppressed
same,differentiation of myoblasts to myotubes,"C2C12 cells [2]; compared with DMSO or insulin (1.72 μM), 0.01-10 μM",more differentiated to myotubes
same,differentiation promoting effect,C2C12 cells [2]; compared with alverine at the same concentration,superior differentiation promoting effect than alverine
"CCN(CCCc1ccccc1)CCCc1ccccc1 [Alverine, N-ethyl-3-phenyl-N-(3-phenylpropyl)propan-1-amine]",running time,sarcopenia-induced mice,increased compared to the normal mouse
same,differentiation of myoblasts to myotubes,C2C12 cells [3],promoted the differentiation to myotubes
"insulin: positive control group, purchased from Sigma-Aldrich",differentiation of myoblasts to myotubes,"C2C12 cells [2]; compared with DMSO alone, 3 days, insulin 1.72 μM, alverine citrate 0.01-10 μM",more differentiated to myotubes
